Experimental data: the supplement of paper PMC10307832

What was measured:
Experiment in all cases: relative viability (nuclei count vs DMSO), 5 days (fraction); higher = more cells survive
[1] = compound: CC[C@H](C)N1C=C(C2=C(C=C(C=C21)C3=CN=C(C=C3)N4CCNCC4)C(=O)NCC5=C(C=C(NC5=O)C)C)C [GSK126] + C[C@]1(O)C[C@@H](c2nc(-c3ccc4ccc(-c5ccccc5)nc4c3)c3c(N)nccn32)C1 [Linsitinib] (partner 1 µM)
Outline: (§1)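 Nuclei were stained with Hoechst during a one-step fixation (final 0.05% Triton X-100, 1% formaldehyde, 1 ug/ml Hoechst) carried out 5 days after dosing, then counted on 4× images. The cells, lung cancer lines in 1536-well plates, had been dosed by pin tool the day after seeding with one drug alone or a fixed anchor-drug dose plus five library-drug doses (not always all listed) in √10 steps. Relative viability is the nuclei count in treated wells divided by that in vehicle wells, and each value is the median of duplicate plates.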

[2] = compound: NS(=O)(=O)OC[C@@H]1C[C@@H](n2ccc3c(N[C@H]4CCc5ccccc54)ncnc32)C[C@@H]1O [MLN4924] + Nc1nc2[nH]cc(CCc3ccc(C(=O)N[C@@H](CCC(=O)O)C(=O)O)cc3)c2c(=O)[nH]1 [Pemetrexed] (partner 0.2 µM)
Outline: as §1

[3] = compound: NS(=O)(=O)OC[C@@H]1C[C@@H](n2ccc3c(N[C@H]4CCc5ccccc54)ncnc32)C[C@@H]1O [MLN4924] + NC(=O)Nc1cc(-c2cccc(F)c2)sc1C(=O)N[C@H]1CCCNC1 [AZD7762] (partner 0.2 µM)
Outline: as §1

[4] = compound: NS(=O)(=O)OC[C@@H]1C[C@@H](n2ccc3c(N[C@H]4CCc5ccccc54)ncnc32)C[C@@H]1O [MLN4924] + COc1cccc2cc(-c3nc([C@H]4CC[C@H](C(=O)O)CC4)n4ncnc(N)c34)[nH]c12 [OSI-027] (partner 0.5 µM)
Outline: as §1

Cell Line	relative viability ([1]; first compound 0.08 µM)	relative viability ([1]; first compound 0.253 µM)	relative viability ([1]; first compound 0.8 µM)	relative viability ([1]; first compound 2.53 µM)	relative viability ([1]; first compound 8 µM)	relative viability ([2]; first compound 0.04 µM)	relative viability ([2]; first compound 0.1265 µM)	relative viability ([2]; first compound 0.4 µM)	relative viability ([2]; first compound 1.265 µM)	relative viability ([2]; first compound 4 µM)	relative viability ([3]; first compound 0.04 µM)	relative viability ([3]; first compound 0.1265 µM)	relative viability ([3]; first compound 0.4 µM)	relative viability ([3]; first compound 1.265 µM)	relative viability ([3]; first compound 4 µM)	relative viability ([4]; first compound 0.04 µM)	relative viability ([4]; first compound 0.1265 µM)	relative viability ([4]; first compound 0.4 µM)	relative viability ([4]; first compound 1.265 µM)	relative viability ([4]; first compound 4 µM)
LK-2	0.397	0.485	0.626	0.944	0.352	0.25	0.248	0.203	0.117	0.106	0.329	0.307	0.309	0.124	0.155	0.214	0.214	0.191	0.202	0.17
HCC-827	1.03	0.965	0.948	0.875	0.964	0.278	0.271	0.266	0.176	0.17	0.687	0.556	0.374	0.195	0.151	0.794	0.558	0.686	0.151	0.159
NCI-H322M	0.953	0.949	0.884	1.01	0.937	0.719	0.776	0.549	0.3	0.422	0.688	0.643	0.64	0.317	0.39	0.622	0.588	0.339	0.272	0.329
NCI-H1944	1.48	1.18	1.15	1.22	1.33	0.602	0.56	0.405	0.186	0.157	0.766	0.627	0.39	0.186	0.123	0.502	0.453	0.313	0.161	0.185
